Source: patent US9365566B2 (Takeda Pharmaceutical Company Limited, priority 2012, dated 2016)

target: T1, human BTK (Homo sapiens, UniProt Q06187); assay: BTK inhibition assay: BTK-mediated phosphorylation of FAM-labeled substrate 5-FAM-EEPLYWSFPAKKK-NH2 (Caliper LC-3000); type: biochemical; settings: pIC50 = -log(IC50), IC50 molar; residues 382 to 659 of human BTK; incubated at room temperature for 60 minutes; larger values represent higher potency
T1 construct: GST (Glutathione-S-Transferase) (cleaved yes); made in house; host or cells: Spodoptera frugiperda Sf9 cells (baculovirus, Bac-to-Bac)
T1 sequence (Q06187 382-659): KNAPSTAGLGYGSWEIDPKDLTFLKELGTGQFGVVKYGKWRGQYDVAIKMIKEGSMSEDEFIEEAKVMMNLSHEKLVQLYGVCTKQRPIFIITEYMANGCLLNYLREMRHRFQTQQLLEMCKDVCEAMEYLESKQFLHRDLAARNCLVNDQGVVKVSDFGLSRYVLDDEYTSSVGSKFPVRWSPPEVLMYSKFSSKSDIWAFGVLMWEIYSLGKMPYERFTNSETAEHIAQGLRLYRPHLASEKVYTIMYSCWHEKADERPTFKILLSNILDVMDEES

| SMILES | IC50 |
| --- | --- |
| CC(C)(C)c1ccc(-c2nc3ccc(-c4cccc5c(N)c(C(N)=O)nnc45)cc3[nH]2)cc1 [Example 117, 4-amino-8-(2-(4-tert-butylphenyl)-1H-benzo[d]imidazol-6-yl)cinnoline-3-carboxamide] | 79.4 nM |
| NC(=O)c1nnc2c(-c3ccc4nc(-c5ccc(F)cc5F)[nH]c4c3)cccc2c1N [Example 118, 4-amino-8-(2-(2,4-difluorophenyl)-1H-benzo[d]imidazol-6-yl)cinnoline-3-carboxamide] | 100 nM |
| Cc1ccc2c(N)c(C(N)=O)nnc2c1-c1ccc2nc(-c3ccc(F)cc3)[nH]c2c1 [Example 120, 4-amino-8-(2-(4-fluorophenyl)-1H-benzo[d]imidazol-6-yl)-7-methylcinnoline-3-carboxamide] | 25.1 nM |
| NC(=O)c1nnc2c(-c3ccc4c(c3)CN(c3ccccc3)C4=O)cccc2c1N [Example 121, 4-amino-8-(1-oxo-2-phenylisoindolin-5-yl)cinnoline-3-carboxamide] | 126 nM |
| NC(=O)c1nnc2c(-c3ccc4c(c3)CNC4=O)cccc2c1N [Example 122] | 20 nM |
| CN1Cc2cc(-c3cccc4c(N)c(C(N)=O)nnc34)ccc2C1=O [Example 123, 4-amino-8-(2-methyl-1-oxoisoindolin-5-yl)cinnoline-3-carboxamide] | 200 nM |
| Cc1ccc2c(N)c(C(N)=O)nnc2c1-c1ccc2c(c1)CNC2=O [Example 124, 4-amino-7-methyl-8-(1-oxoisoindolin-5-yl)cinnoline-3-carboxamide] | 6.31 nM |
| NC(=O)c1nnc2c(-c3ccc4c(c3)CNC4=O)ccc(F)c2c1N [Example 125, 4-amino-5-fluoro-8-(1-oxoisoindolin-5-yl)cinnoline-3-carboxamide] | 39.8 nM |
| Cc1cc(F)c2c(N)c(C(N)=O)nnc2c1-c1ccc2c(c1)CNC2=O [Example 126, 4-amino-5-fluoro-7-methyl-8-(1-oxoisoindolin-5-yl)cinnoline-3-carboxamide] | 12.6 nM |
| CC(C)(O)CCN1Cc2cc(-c3cccc4c(N)c(C(N)=O)nnc34)ccc2C1=O [Example 127, 4-amino-8-(2-(3-hydroxy-3-methylbutyl)-1-oxoisoindolin-5-yl)cinnoline-3-carboxamide] | 25.1 nM |
| Cc1ccc2c(N)c(C(N)=O)nnc2c1-c1ccc2c(c1)CN(CCC(C)(C)O)C2=O [Example 128, 4-amino-8-(2-(3-hydroxy-3-methylbutyl)-1-oxoisoindolin-5-yl)-7-methylcinnoline-3-carboxamide] | 7.94 nM |
| CCc1ccc2c(N)c(C(N)=O)nnc2c1-c1ccc2c(c1)CNC2=O [Example 129, 4-amino-7-ethyl-8-(1-oxoisoindolin-5-yl)cinnoline-3-carboxamide] | 5.01 nM |
| N#Cc1nc2ccc(-c3cccc4c(N)c(C(N)=O)nnc34)cc2[nH]1 [Example 130, 4-amino-8-(2-cyano-1H-benzo[d]imidazol-6-yl)cinnoline-3-carboxamide] | 200 nM |
| CCn1cnc2ccc(-c3c(C)ccc4c(N)c(C(N)=O)nnc34)cc21 [Example 131, 4-amino-8-(1-ethyl-1H-benzo[d]imidazol-6-yl)-7-methylcinnoline-3-carboxamide] | 100 nM |
| CCn1cnc2cc(-c3c(C)ccc4c(N)c(C(N)=O)nnc34)ccc21 [Example 132, 4-amino-8-(1-ethyl-1H-benzo[d]imidazol-5-yl)-7-methylcinnoline-3-carboxamide] | 1260 nM |
| Cc1ccc2c(N)c(C(N)=O)nnc2c1-c1ccc2ncn(CCC#N)c2c1 [Example 133, 4-amino-8-(1-(2-cyanoethyl)-1H-benzo[d]imidazol-6-yl)-7-methylcinnoline-3-carboxamide] | 501 nM |
| Cc1ccc2c(N)c(C(N)=O)nnc2c1-c1ccc2ncn(CCO)c2c1 [Example 134, 4-amino-8-(1-(2-hydroxyethyl)-1H-benzo[d]imidazol-6-yl)-7-methylcinnoline-3-carboxamide] | 794 nM |
| N#Cc1ccc2c(N)c(C(N)=O)nnc2c1-c1ccc2cn[nH]c2c1 [Example 135, 4-amino-7-cyano-8-(1H-indazol-6-yl)cinnoline-3-carboxamide] | 126 nM |
| Cc1cc2cn[nH]c2cc1-c1cc(F)cc2c(N)c(C(N)=O)nnc12 [Example 136, 4-amino-6-fluoro-8-(5-methyl-1H-indazol-6-yl)cinnoline-3-carboxamide] | 10 nM |
| Cc1cc2cn[nH]c2cc1-c1cc(N2CCOCC2)cc2c(N)c(C(N)=O)nnc12 [Example 137, 4-amino-8-(5-methyl-1H-indazol-6-yl)-6-morpholinocinnoline-3-carboxamide] | 7.94 nM |
| Cc1cc2cn[nH]c2cc1-c1cc(N2CCC(O)CC2)cc2c(N)c(C(N)=O)nnc12 [Example 138, 4-amino-6-(4-hydroxypiperidin-1-yl)-8-(5-methyl-1H-indazol-6-yl)cinnoline-3-carboxamide] | 12.6 nM |
